Where two headings read alike, the source gives them in different places.
Legend:
[1] = test system: KDR-positive vascular endothelial progenitor cells from human iPS cells (ChiPSC12 strain); experiment: Cell numbers during differentiation of iPS cell-derived vascular endothelial progenitor cells cultured with a TGF-β inhibitor (Days 8 to 11); format: cell-based; details: for Cell Numbers (Day 19) / Cell Numbers (Day 30): cell numbers at Day 8 defined as 1
[2] = test system: KDR-positive vascular endothelial progenitor cells from human iPS cells (ChiPSC12 strain); experiment: CD31-positive cell ratio (endothelial cell marker) by flow cytometry; format: cell-based
Method: Human iPS cells ([…]) were cultured in DEF-CS medium (Cellartis) in accordance with the instructions attached to the medium. In order to efficiently induce differentiation of mesodermal cells, iPS cells were coated with Matrigel (Matrigel Sandwich method) in accordance with the following procedures. […] Here, SB431542, another TGF-β inhibitor, was used as a negative control. The cells were collected at Day 11, and the cell numbers were counted.

[3] = test system: KDR-positive vascular endothelial progenitor cells from human iPS cells (ChiPSC12 strain)
Method: Human iPS cells (ChiPSC12 strain) were cultured in DEF-CS medium in accordance with the instructions attached to the medium.
TrypLE(trademark) Select was added to iPS cells that had been subcultured, and the cells were incubated at 37° C. for 3 to 7 minutes. The detached cells were collected as a single cell by pipetting, and the cell numbers were counted. […] Thereafter, the medium was exchanged with DEF-CS medium added with Matrigel diluted to 1:60, and the cells were cultured for additional 16 to 24 hours, thereby coating an upper layer of the cells with Matrigel.
The Matrigel-coated iPS cells obtained were differentiated into mesodermal cells in accordance with the following procedures. First, a medium of the Matrigel-coated iPS cells was exchanged with RPMI 1640 medium added with 100 ng/mL activin A, 2 mM GlutaMAX(trademark), and B27 supplement (without containing insulin) (this time point being defined as the beginning of the induction of differentiation=Day 0), and the cells were cultured for 24 hours (Day 1). Next, the medium was exchanged with RPMI 1640 medium added with 10 ng/mL hBMP4, 10 ng/mL hbFGF, 2 mM GlutaMAX, and B27 supplement, and the cells were cultured for 3 days (Day 4). Thereafter, the medium was exchanged with RPMI 1640 medium added with 100 ng/mL VEGF, 2 mM GlutaMAX, and B27 supplement, and the cells were cultured overnight (Day 5).
KDR-positive cells were separated from the cultured cells at Day 5 by using the magnetic-activated cell sorting, thereby isolating vascular endothelial progenitor cells. In order to separate the KDR-positive cells, an anti-KDR antibody to which a PE fluorescent label was bound was used as a primary antibody for labeling cells, and cells labeled with the primary antibody were collected with magnetic beads embedding anti-PE antibodies. […] Further, the medium at Day 6 was exchanged with RPMI 1640 medium added with B27 supplement, 50 units/mL penicillin, 50 μg/mL streptomycin, 2 mM GlutaMAX, and 100 ng/mL VEGF, and the cells were cultured for 2 days (Day 8).
Here, CD31 is a marker of endothelial cells, and CD34 is a marker of hematopoietic stems cells or endothelial progenitor cells. In addition, CD34 is also expressed in juvenile endothelial cells.

[4] = test system: vascular endothelial cells induced from human iPS cells (ChiPSC12 strain); experiment: Freezing and thawing of vascular endothelial cells induced with RepSox; details: cells induced with 20 μM RepSox, collected Days 18 to 22, stored in liquid nitrogen for 3 days, thawed at 37° C.
Method: The collected cells were washed, and suspended in Stem Cell Banker (TAKARA BIO INC.) so as to have a cell concentration of 3×10^6/mL, and 1 mL of each of the suspension was dispensed to vials. The vials were placed in a frozen-treated vessel (BICELL, Nihon Freezer Co., Ltd.), and the cells were subjected to slow freezing in a freezing storage chamber held at a temperature of −80° C. Thereafter, each vial was transferred to a liquid nitrogen, and stored for 3 days.
The frozen cells were warmed for 2 minutes and 30 seconds with a water bath warmed to 37° C., to thaw the cells. […] An entire amount of the remaining cells was added to a tube to which 8 mL of a medium for proliferating endothelial cells had been dispensed in advance. Thereafter, a vial was rinsed with 1 mL of a medium for proliferating endothelial cells, and a rinsed medium was added to the tube. The tube was centrifuged at 200×g for 5 minutes, and the supernatant was then discarded. The cells were suspended in a fresh medium for culturing endothelial cells, and the cells were seeded at a density of 2×10^4 cells/cm^2 to a culture vessel. […]
The cells were collected on a seventh day after thawing the cells, and the cell numbers were counted. At the same time, the CD31-positive cell ratio, an endothelial cell marker, was measured with a flow cytometry.

SMILES | Cell Numbers (Day 19) ([1]; 10 μM inhibitor Days 8 to 11) | Cell Numbers (Day 30) ([1]; 10 μM inhibitor Days 8 to 11) | Cell Numbers (Day 19) ([1]; 20 μM inhibitor Days 8 to 11) | Cell Numbers (Day 30) ([1]; 20 μM inhibitor Days 8 to 11) | CD31-Positive (Day 19) ([2]; 10 μM inhibitor Days 8 to 11) [%] | CD31-Positive (Day 30) ([2]; 10 μM inhibitor Days 8 to 11) [%] | CD31-Positive (Day 19) ([2]; 20 μM inhibitor Days 8 to 11) [%] | CD31-Positive (Day 30) ([2]; 20 μM inhibitor Days 8 to 11) [%] | further results
Cc1cccc(-c2[nH]ncc2-c2ccc3ncccc3n2)n1 [RepSox] | 3.5 | 9.1 | 3.5 | 3.1 | 99.7 | 99.0 | 99.8 | 99.1 | Cell Numbers (Day 19) ([1]; 3 μM inhibitor Days 8 to 11): 3.1; Cell Numbers (Day 30) ([1]; 3 μM inhibitor Days 8 to 11): 2.5; cell proliferation rates at Day 30 ([1]; text summary: 'in both the media containing 3 μM RepSox', relative to Day 8 = 1): ≥ 2.5; CD31-Positive (Day 19) ([2]; 3 μM inhibitor Days 8 to 11): 98.9%; CD31-Positive (Day 30) ([2]; 3 μM inhibitor Days 8 to 11): 87.0%; CD31-positive ratios (Day 30) ([2]; text summary: 'in both the media containing 3 μM RepSox'): ≥ 87%; CD31+/CD34+ (Day 13) ([3]; 3 μM RepSox Day 8 to 11): 96.9%; CD31+/CD34+ (Day 18) ([3]; 3 μM RepSox Day 8 to 11): 93.3%; CD31+/CD34+ (Day 13) ([3]; 10 μM RepSox Day 8 to 11): 96.1%; CD31+/CD34+ (Day 18) ([3]; 10 μM RepSox Day 8 to 11): 94.4%; CD31+/CD34+ (Day 13) ([3]; 20 μM RepSox Day 8 to 11): 95.8%; CD31+/CD34+ (Day 18) ([3]; 20 μM RepSox Day 8 to 11): 96.1%; CD31+/CD34+ cells at Day 13 ([3]; regardless of the concentrations of RepSox (3, 10, 20 μM)): ≥ 95%; cell viability after thawing [4]: 87%
NC(=O)c1ccc(-c2nc(-c3ccc4c(c3)OCO4)c(-c3ccccn3)[nH]2)cc1 [SB431542] | 1.3 | 0.9 | 2.3 | 5.1 | 97.7 | 89.4 | 98.7 | 33.0 | –

— US20200071675A1, “METHOD FOR PRODUCING ENDOTHELIAL CELLS” (TAKARA BIO INC., priority 2016, published 2020)
